In article PMC8190279, “Spatiotemporal imaging and pharmacokinetics of fluorescent compounds in zebrafish eleuthero-embryos after different routes of administration” (Scientific Reports, 2021):

Key:
[1] = system: 3 dpf zebrafish eleuthero-embryos; assay: Spatiotemporal fluorescence imaging after immersion, microinjection (PC, IP, IY) or combination; assay type: in vivo, Danio rerio
Experimental: We then determined the spatiotemporal distribution of the fluorescent compounds. The eleuthero-embryos were exposed to the dyes by immersion or microinjection in the pericardial cavity (PC), intraperitoneally (IP) and in the yolk sac (IY) for 48 h starting from 3 dpf on, i.e. after hatching, thus avoiding the presence of the chorion that has been reported as a potential barrier for the absorption of compounds[21],[27].
At specific time periods after treatment, the eleuthero-embryos were immobilized by hypothermia and fluorescent microscope pictures were taken.
3 dpf zebrafish eleuthero-embryos wildtype AB (n = 10 per compound) randomly selected were immersed using 6-well-plates (5 mL per well) of Danieau’s medium with a final DMSO concentration of 0.1% (v/v), containing the compounds at a concentration of 10 µM. Vehicle-treated control eleuthero-embryos were exposed to Danieau’s medium supplemented with 0.1% v/v DMSO.
3 dpf zebrafish eleuthero-embryos wildtype AB (n = 10 per compound) randomly selected were immobilized by cooling to 4 °C and positioned on 1% (w/v) agarose plates at room temperature. All compounds were microinjected using glass needles fitted to a micromanipulator (MM-33) connected to a gas pressure microinjector (Eppendorf Femtojet set - AG 22331 Hamburg). Glass capillaries (W/FIL 1.0MM 4 in TW 100F-4) were pulled (Sutter Instrument CO. Model P-87 Cat N B100-58-15 Filament: FB330B – FB320B) by using program 5 (Heat 829, Pull 158, Vel 100, Time 150). Needles were filled with compounds dissolved in vehicle (DMSO/saline (1:1)). Microinjections were performed into the pericardial cavity (PC)[47], into the yolk sac (IY)[35], or into the peritoneal cavity (IP) at a volume of 1 nL and a dose of 2 mg/kg. For the intraperitoneal microinjection, the eleuthero-embryos were positioned in lateral right recumbence under a dissecting microscope. By using a micromanipulator, the needle was inserted posteriorly and ventrolateral to the swim bladder in the peritoneal cavity. Afterwards the eleuthero-embryos were transferred to 6-well plates. Control eleuthero-embryos were exposed to vehicle only.
3 dpf zebrafish eleuthero-embryos wildtype AB (n = 10 per compound) randomly selected were immobilized and positioned on 1% (w/v) agarose plates. All compounds were microinjected using glass needles, as previously described into the PC cavity. Afterwards, the larvae were selected and transferred to a 6-well-plate, into its corresponding compound at 10 µM.
The thus-treated eleuthero-embryos were kept in the incubator at 28.5 °C (in darkness) and taken out shortly at defined time points (15’, 1 h, 3 h, 6 h, 24 h and 48 h) for image analysis.
Eleuthero-embryos were immobilized by hypothermia, rinsed three times with Danieau’s medium, and positioned latero-lateral (right lateral recumbency) in a drop of agarose (0.1%). To acquire images, a Leica MZ10F fluorescent stereomicroscope with a 4.0 × planapochromatic objective (10447243) was used, equipped with a Digital Color Camera Leica DFC310 FX (Software LAS 4.13). Filter sets were GFP 10446222 in case of compound FAMA, dSRED 10447079 in case of S-CY3A, CY3A and TAMRA, and CY5 10446366 in case of S-CY5.5A and S-CY5A. After manual delineation of the whole body (WB) contours of the zebrafish eleuthero-embryos using MetaMorph (Microscopy Automation & Image Analysis Software V.7.8.00), the fluorescence in the selected area was quantified as integrated fluorescence intensity (RFU) that adds up all fluorescence intensity values of the individual pixels. In case of the combination treatment the same correction factor for exposure time from the camera setting was applied in the case of FAMA and TAMRA, to avoid saturation of the images (Supplementary information. Figure S1)[48]. The selected images shown in the Figs. 1, 2, 3, 4, 5, 6 and 7 were arranged using MS PowerPoint (Microsoft Corporation, Seattle, USA) and the open-source GIMP (version 2.10.24 www.gimp.org 2021) software. […]

[2] = Experimental lipophilicity (LogD), shake-flask method with UHPLC; conditions: n-octanol / Danieau's solution, 10 µM compound
Experimental: Briefly, 10 µM of compound was shaken in a mixture of two mobile phases, n-octanol and Danieau’s solution (eleuthero-embryo medium) and analysed with UHPLC.
The lipophilicity of the fluorescent compounds was determined following the EPA guideline OPPTS 830.7550 Partition coefficient (shake flask method)[46] using Danieau’s solution and n-octanol as the two immiscible phases. Analyses were performed using an Agilent Infinity 1290 UHPLC system (Agilent Technologies, Waldbronn, Germany) consisting of an autosampler, quaternary pump and DAD-detector, operated with Open Lab software (version C.01.10, Agilent Technologies). […] All compounds were detected and quantified at 390 nm. For the quantification of the compounds, calibration samples were made in 50:50 ACN:MilliQ water for the compounds analysed in RPLC and 95:5 ACN:MilliQ water for compounds analysed in HILIC. […] The variation (calculated as the relative standard deviation, %RSD) for 3 injections was always below 10% (for all considered concentrations) and R^2 values of the calibration curves were all above 0.998. All calculations concerning the evaluation of the recorded data were made in MS Excel (Microsoft Corporation, Seattle, USA). […]

[3] = system: 3 dpf zebrafish eleuthero-embryos; assay: Whole-body fluorescence quantification and 1-compartment PK modelling; assay type: in vivo, Danio rerio; conditions: for ke (total elimination rate constant): 1-compartment model fitted to all routes (immersion 10 µM, PC/IP 2 mg/kg, combination), 0-48 h; for Q (passive exchange with the medium) / t1/2 (elimination half-life, ln(2)/ke): 1-compartment model, zebrafish eleuthero-embryo; for Comparison of passive exchange with the medium (Q) among compounds: ranking in words
Description: We then quantified the relative amount of compound present in the zebrafish eleuthero-embryos by assessing the integrated fluorescence intensity of delineated whole-body contours present in the fluorescence images (Figs. 1, 2, 3, 4, 5, 6, 7).
The total measured fluorescence was proportional to total amount of compound present in the animal, as described by Eq. (1). RFUT denotes the sum of fluorescence intensity in the overall image, A denotes the amount of drug in the zebrafish, and FLUOR is a constant denoting the compound-specific fluorescence quantum yield.1 RFUT=FLUOR∗A
Simplifying by substitution of ke=Q+CL/V :3 dA/dt=-ke∗A+QM
Next, data fitting was performed with the following mathematical model:4 At=Dose∗e^-ket+MQ/ke(1-e^-ket) with Dose the injected dose (mg/kg), M the concentration in the medium (mg/L), Q the passive exchange with the medium (L/h) and ke the total elimination rate constant (h^−1). When administering the compound through immersion, the injected dose is 0 mg/kg. When injecting the compound, the concentration in medium is 0. This model was fitted to all available data using non-linear regression in R version 4.0.3.
Residual error plots were used to identify observations with poor fit.
The designed model was optimized by a non-linear least squares modelling, using Gauss–Newton algorithms under the method of iterative fashion, with R version 4.0.3, using stats::nls[50].

Row | Compound | ke (total elimination rate constant) [3] | Q (passive exchange with the medium) [3] | t1/2 (elimination half-life, ln(2)/ke) [3] | Level and intra-body fluorescence distribution at 48 h, combination (immersion + PC) compared with PC microinjection ([1]; in vivo) | Additional effect of immersion route on intrabody exposure in combination treatment (RC3h) ([3]; 3 h exposure, immersion 10 µM + PC 2 mg/kg) | Comparison of passive exchange with the medium (Q) among compounds [3] | Intra-fish distribution after pericardial (PC) microinjection ([1]; in vivo) | Intra-fish distribution after pericardial (PC) microinjection ([1]; PC microinjection 2 mg/kg) | Level and intra-body fluorescence distribution at 48 h, combination (immersion + PC) compared with PC microinjection ([1]; immersion 10 µM + PC 2 mg/kg, 48 h) | Uptake after immersion (fluorescence imaging) ([1]; immersion 10 µM, 0-48 h from 3 dpf) | LogD [2]
1 | C#CCNC(=O)c1ccc(-c2c3ccc(=[N+](C)C)cc-3oc3cc(N(C)C)ccc23)c(C(=O)[O-])c1 (single isomer, unassigned) [TAMRA, Tamra alkyne 5-isomer] | 0.052 h⁻¹ | 1.45 L/h × 10^−9 | 13.35 h |  |  |  |  | rapidly distributed to the vasculature | altered | gradually taken up over time | 0.46
2 | C#CCNC(=O)CCCCCN1C(=CC=CC2=[N+](C)c3ccccc3C2(C)C)C(C)(C)c2ccccc21.[Cl-] [CY3A, Cyanine3 alkyne] | 0.049 h⁻¹ | 8.37 L/h × 10^−9 | 13.92 h | altered | to a limited degree | taken up the fastest |  |  |  |  | 1.73
3 | C#CCNC(=O)c1ccc2c(c1)C(=O)OC21c2ccc(O)cc2Oc2cc(O)ccc21 [FAMA, FAM alkyne, 5-isomer] |  | 1.71 L/h × 10^−9 | 57.41 h |  |  |  | rapidly distributed to the vasculature |  |  |  | 
4 | Sulfo-cyanine 3 alkyne [S-CY3A] | 0.012 h⁻¹ | 0.23 L/h × 10^−9 | 57.40 h |  |  |  | rapidly distributed to the vasculature |  |  |  | 

More lines, main results first:

Row | ke (total elimination rate constant) [3] | Q (passive exchange with the medium) [3] | t1/2 (elimination half-life, ln(2)/ke) [3] | Level and intra-body fluorescence distribution at 48 h, combination (immersion + PC) compared with PC microinjection ([1]; in vivo) | Additional effect of immersion route on intrabody exposure in combination treatment (RC3h) ([3]; 3 h exposure, immersion 10 µM + PC 2 mg/kg) | Comparison of passive exchange with the medium (Q) among compounds [3] | Intra-fish distribution after pericardial (PC) microinjection ([1]; in vivo) | Compound | Intra-fish distribution after pericardial (PC) microinjection ([1]; PC microinjection 2 mg/kg) | Level and intra-body fluorescence distribution at 48 h, combination (immersion + PC) compared with PC microinjection ([1]; immersion 10 µM + PC 2 mg/kg, 48 h) | Uptake after immersion (fluorescence imaging) ([1]; immersion 10 µM, 0-48 h from 3 dpf) | LogD [2]
5 | 0.023 h⁻¹ | 0.34 L/h × 10^−9 | 30.26 h |  |  | slowest one to be exchanged | rapidly distributed to the vasculature | C#CCNC(=O)CCCCCN1/C(=C/C=C/C=C/C2=[N+](C)c3ccc4c(S(=O)(=O)[O-])cc(S(=O)(=O)[O-])cc4c3C2(C)C)C(C)(C)c2c1ccc1c(S(=O)(=O)[O-])cc(S(=O)(=O)[O-])cc21.[K+].[K+].[K+] [S-CY5.5A, Sulfo-cyanine 5.5 alkyne] |  |  |  | 
6 | 0.014 h⁻¹ | 1.61 L/h × 10^−9 | 50.41 h | altered |  |  | rapidly distributed to the vasculature | Sulfo-cyanine 5 alkyne [S-CY5A] |  |  |  | 
